# Data: patent US8242166B2, “C(10) ethyl ester and C(10) cyclopropyl ester substituted taxanes” (Florida State University Research Foundation, Inc., priority 2008, dated 2012)
# Like-named read-outs stand apart in the source and are kept apart here.
# Experiments:
# [1] = test system: SKMES lung tumors; assay: SKMES xenograft study, i.v. single dose (Example 20); type: in vivo, nude mice; settings: 30 mg/kg iv qd × 1
# Experimental: This study was conducted at PRC as previously described. SKMES is a human lung cancer cell line. In the present study, compound 2 and all agents were administered as i.v. monotherapies in a single 30 mg/kg dose (qd×1). […] Control mice received this vehicle qd×1. […] The endpoint volume for tumor growth was 1,500 mm^3. The study was terminated on Day 23.
# [2] = test system: human SKMES lung carcinoma xenografts; assay: SKMES xenograft study e82, i.v. q4d×4 (Example 21); type: in vivo, nude mice; settings: 30 mg/kg i.v. q4d×4; five mice
# [3] = test system: HT29 human tumor xenografts; assay: HT29 xenograft study e133 (Example 24); type: in vivo, nude mice
# Experimental: […]. Control mice received the 5% E 95% L-II vehicle q4d×4. A positive reference group received i.v. therapy with compound 2, at 30 mg/kg once weekly for three weeks (q7d×3), in a vehicle of 7.5% ethanol and 7.5% Tween® 80 in 5% dextrose in water. […] The endpoint volume for tumor growth was 1,000 mm^3. […].
# [4] = test system: human HT29 colon carcinoma xenografts
# [5] = test system: MX1 human tumor xenografts; assay: MX1 xenograft study e220, i.v. q4d×4 (Example 18); settings: for maximum group mean BW loss: on D19
structure (smiles),measurement,setting,value
CCC(=O)O[C@H]1C(=O)[C@@]2(C)C([C@H](OC(=O)c3ccccc3)[C@]3(O)C[C@H](OC(=O)[C@H](O)[C@@H](NC(=O)OC4CCC4)c4cccs4)C(C)=C1C3(C)C)[C@]1(OC(C)=O)CO[C@@H]1C[C@@H]2O (stereo partly shown) [Compound 19244],% TGD,[1],61.94%
same,"MTV (n), Day 23",[1],352.00 (5) mm^3
same,Median TTE,[1],23 days
same,T-C,[1],8.8 days
same,NTR NTRm,[1]; n=5,0
same,PR (partial regression),[1]; n=5,0
same,TFS (tumor-free survivor),[1]; n=5,1
same,TR (treatment-related death),[1]; n=5,0
same,TFS,[2],3
same,partial response,[2],two
same,MTV,[3]; 30 mg/kg i.v. q4d×4,0
same,TGD,[3]; 30 mg/kg i.v. q4d×4,172%
same,55-day survivors,"[3]; 30 mg/kg i.v. q4d×4, six mice",five
same,Max. % BW Loss; Day,[3]; 30 mg/kg iv Q4d × 4,−17.3%; Day 17
same,# Death NTR,"[3]; 30 mg/kg iv Q4d × 4, n=6",0
same,LTTFS,"[4]; 30 mg/kg i.v. q4d×4, six mice",1
same,regression responses,"[4]; 30 mg/kg i.v. q4d×4, six mice",six
same,% TGD,[5]; 7.5 mg/kg iv q4d × 4,217.17%
same,BW Nadir,[5]; 7.5 mg/kg iv q4d × 4,−3.1% (19)
same,"MTV (n), Day 57",[5]; 7.5 mg/kg iv q4d × 4,0.00 (5) mm^3
same,Median TTE,[5]; 7.5 mg/kg iv q4d × 4,57 days
same,T-C,[5]; 7.5 mg/kg iv q4d × 4,39.03 days
same,CR (complete regression),"[5]; 7.5 mg/kg iv q4d × 4, n=5",5
same,NTR (non-treatment-related death),"[5]; 7.5 mg/kg iv q4d × 4, n=5",0
same,PR (partial regression),"[5]; 7.5 mg/kg iv q4d × 4, n=5",0
same,TFS (tumor-free survivor),"[5]; 7.5 mg/kg iv q4d × 4, n=5",3
same,TR (treatment-related death),"[5]; 7.5 mg/kg iv q4d × 4, n=5",0
same,transient CRs,"[5]; 7.5 mg/kg iv q4d × 4, n=5",2
same,maximum group mean BW loss,[5]; 7.5 mg/kg iv q4d × 4,3.1%
same,% TGD,[5]; 15 mg/kg iv q4d × 4,217.17%
same,BW Nadir,[5]; 15 mg/kg iv q4d × 4,−7.6% (19)
same,"MTV (n), Day 57",[5]; 15 mg/kg iv q4d × 4,0.00 (5) mm^3
same,Median TTE,[5]; 15 mg/kg iv q4d × 4,57 days
same,T-C,[5]; 15 mg/kg iv q4d × 4,39.03 days
same,CR (complete regression),"[5]; 15 mg/kg iv q4d × 4, n=5",5
same,NTR (non-treatment-related death),"[5]; 15 mg/kg iv q4d × 4, n=5",0
same,PR (partial regression),"[5]; 15 mg/kg iv q4d × 4, n=5",0
same,TFS (tumor-free survivor),"[5]; 15 mg/kg iv q4d × 4, n=5",5
same,TR (treatment-related death),"[5]; 15 mg/kg iv q4d × 4, n=5",0
same,maximum group mean BW loss,[5]; 15 mg/kg iv q4d × 4,7.6%
same,% TGD,[5]; 30 mg/kg iv q4d × 4,217.17%
same,BW Nadir,[5]; 30 mg/kg iv q4d × 4,−18.9% (19)
same,"MTV (n), Day 57",[5]; 30 mg/kg iv q4d × 4,0.00 (5) mm^3
same,Median TTE,[5]; 30 mg/kg iv q4d × 4,57 days
same,T-C,[5]; 30 mg/kg iv q4d × 4,39.03 days
same,CR (complete regression),"[5]; 30 mg/kg iv q4d × 4, n=5",4
same,NTR (non-treatment-related death),"[5]; 30 mg/kg iv q4d × 4, n=5",0
same,PR (partial regression),"[5]; 30 mg/kg iv q4d × 4, n=5",1
same,TFS (tumor-free survivor),"[5]; 30 mg/kg iv q4d × 4, n=5",4
same,TR (treatment-related death),"[5]; 30 mg/kg iv q4d × 4, n=5",0
same,maximum group mean BW loss,[5]; 30 mg/kg iv q4d × 4,18.9%
"CC(=O)O[C@@]12CO[C@@H]1C[C@H](O)[C@@]1(C)C(=O)[C@H](O)C3=C(C)[C@@H](OC(=O)[C@H](O)[C@@H](NC(=O)OC(C)(C)C)c4ccccc4)C[C@@](O)([C@@H](OC(=O)c4ccccc4)[C@H]21)C3(C)C [Docetaxel, docetaxel, reference compound]",% TGD,[1],61.94%
same,"MTV (n), Day 23",[1],166.75 (4) mm^3
same,Median TTE,[1],23 days
same,T-C,[1],8.8 days
same,CR (complete regression),[1]; n=5,0
same,NTR NTRm,[1]; n=5,0
same,PR (partial regression),[1]; n=5,2
same,TFS (tumor-free survivor),[1]; n=5,0
same,TR (treatment-related death),[1]; n=5,0
same,# Death NTR,"[3]; 30 mg/kg iv Q7d × 3, n=6",0
same,# Death TR,"[3]; 30 mg/kg iv Q7d × 3, n=6",0
same,LTTFS,"[4]; 25 mg/kg q7d×3, six mice",one
same,PR responses,"[4]; 25 mg/kg q7d×3, six mice",4
same,Number of Death NTR,"[4]; mouse, in vivo",0
same,Number of Death TR,"[4]; mouse, in vivo",0
same,% TGD,[5]; 25 mg/kg iv qwk × 3,217.17%
same,BW Nadir,[5]; 25 mg/kg iv qwk × 3,−10.9% (22)
same,"MTV (n), Day 57",[5]; 25 mg/kg iv qwk × 3,0.00 (5) mm^3
same,Median TTE,[5]; 25 mg/kg iv qwk × 3,57 days
same,T-C,[5]; 25 mg/kg iv qwk × 3,39.03 days
same,CR (complete regression),"[5]; 25 mg/kg iv qwk × 3, n=5",5
same,NTR (non-treatment-related death),"[5]; 25 mg/kg iv qwk × 3, n=5",0
same,PR (partial regression),"[5]; 25 mg/kg iv qwk × 3, n=5",0
same,TFS (tumor-free survivor),"[5]; 25 mg/kg iv qwk × 3, n=5",5
same,TR (treatment-related death),"[5]; 25 mg/kg iv qwk × 3, n=5",0
